ChEMBL document CHEMBL1201862, “PubChem BioAssay data set” (2004)
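How tested: cells in 96-well plates exposed to compound for 48 hours at five concentrations. GI50 marks 50% less growth.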 The source made the active and inactive calls. No stated cut-off is given here; in the data, active = GI50 up to about 1.1 µM and inactive = higher.

How the values were obtained:
Assay in all cases: inhibition of tumour cell growth, NCI panel, 48 h
786-0 = test system: 786-0
A498 = test system: A498
A549 = test system: A549
ACHN = test system: ACHN
BT-549 = test system: BT-549
CAKI-1 = test system: CAKI-1
CCRF-CEM = test system: CCRF-CEM
COLO 205 = test system: COLO 205
DU-145 = test system: DU-145
EKVX = test system: EKVX
HCC 2998 = test system: HCC 2998
HCT-116 = test system: HCT-116
HCT-15 = test system: HCT-15
HL-60 = test system: HL-60
HOP-62 = test system: HOP-62
HOP-92 = test system: HOP-92
HT-29 = test system: HT-29
Hs-578T = test system: Hs-578T
IGROV-1 = test system: IGROV-1
K562 = test system: K562
KM12 = test system: KM12
LOX IMVI = test system: LOX IMVI
M14 = test system: M14
MCF7 = test system: MCF7
MDA-MB-231 = test system: MDA-MB-231
MDA-MB-435 = test system: MDA-MB-435
MDA-N = test system: MDA-N
MOLT-4 = test system: MOLT-4
Malme-3M = test system: Malme-3M
NCI-H226 = test system: NCI-H226
NCI-H23 = test system: NCI-H23
NCI-H460 = test system: NCI-H460
NCI-H522 = test system: NCI-H522
NCI/ADR-RES = test system: NCI/ADR-RES
OVCAR-3 = test system: OVCAR-3
OVCAR-4 = test system: OVCAR-4
OVCAR-5 = test system: OVCAR-5
OVCAR-8 = test system: OVCAR-8
PC-3 = test system: PC-3
RPMI-8226 = test system: RPMI-8226
RXF 393 = test system: RXF 393
SF-268 = test system: SF-268
SF-295 = test system: SF-295
SF-539 = test system: SF-539
SK-MEL-28 = test system: SK-MEL-28
SK-MEL-2 = test system: SK-MEL-2
SK-MEL-5 = test system: SK-MEL-5
SK-OV-3 = test system: SK-OV-3
SN12C = test system: SN12C
SNB-19 = test system: SNB-19
SNB-75 = test system: SNB-75
SW-620 = test system: SW-620
TK-10 = test system: TK-10
U-251 = test system: U-251
UACC-257 = test system: UACC-257
UACC-62 = test system: UACC-62
UO-31 = test system: UO-31
T47D = test system: T47D

COc1c(OC(C)C)c(OC(C)C)c2oc(=O)n3c2c1C(c1ccccc1-n1c(C)ccc1C)C=C3 (stereo not given)
GI50 (786-0): 80.7 µM (inactive) | GI50 (A498): 92.5 µM (inactive) | GI50 (A549): 39.4 µM (inactive) | GI50 (ACHN): 48.8 µM (inactive) | GI50 (BT-549): > 100 µM (inactive) | GI50 (CAKI-1): > 100 µM (inactive) | GI50 (CCRF-CEM): 71.9 µM (inactive) | GI50 (COLO 205): > 100 µM (inactive) | GI50 (DU-145): 60.4 µM (inactive) | GI50 (EKVX): 17.6 µM (inactive) | GI50 (HCC 2998): 37.9 µM (inactive) | GI50 (HCT-116): 16.7 µM (inactive) | GI50 (HCT-15): 61.8 µM | GI50 (HL-60): > 100 µM (inactive) | GI50 (HOP-62): 30.5 µM (inactive) | GI50 (HOP-92): 53.7 µM (inactive) | GI50 (HT-29): 12.6 µM (inactive) | GI50 (Hs-578T): 18.5 µM (inactive) | GI50 (IGROV-1): 39.9 µM (inactive) | GI50 (K562): > 100 µM (inactive) | GI50 (KM12): 22.9 µM (inactive) | GI50 (LOX IMVI): 21.5 µM (inactive) | GI50 (M14): 29.2 µM (inactive) | GI50 (MCF7): 33 µM (inactive) | GI50 (MDA-MB-231): 45 µM (inactive) | GI50 (MDA-MB-435): 35.2 µM (inactive) | GI50 (MDA-N): 29.2 µM (inactive) | GI50 (MOLT-4): 42.5 µM (inactive) | GI50 (Malme-3M): 13 µM (inactive) | GI50 (NCI-H226): 17.1 µM (inactive) | GI50 (NCI-H23): 34.8 µM (inactive) | GI50 (NCI-H460): 41.9 µM (inactive) | GI50 (NCI-H522): 26.7 µM (inactive) | GI50 (NCI/ADR-RES): 33.6 µM (inactive) | GI50 (OVCAR-3): > 100 µM (inactive) | GI50 (OVCAR-4): 75 µM (inactive) | GI50 (OVCAR-5): > 100 µM (inactive) | GI50 (OVCAR-8): 35.3 µM (inactive) | GI50 (PC-3): 14.2 µM (inactive) | GI50 (RPMI-8226): 64.6 µM (inactive) | GI50 (RXF 393): 22 µM (inactive) | GI50 (SF-268): 38.1 µM (inactive) | GI50 (SF-295): 74.3 µM (inactive) | GI50 (SF-539): 67.5 µM (inactive) | GI50 (SK-MEL-28): 37.8 µM (inactive) | GI50 (SK-MEL-2): 95.9 µM (inactive) | GI50 (SK-MEL-5): 98.4 µM (inactive) | GI50 (SK-OV-3): > 100 µM (inactive) | GI50 (SN12C): 71.9 µM (inactive) | GI50 (SNB-19): > 100 µM (inactive) | GI50 (SNB-75): 41.8 µM (inactive) | GI50 (SW-620): 32.5 µM (inactive) | GI50 (TK-10): > 100 µM (inactive) | GI50 (U-251): > 100 µM (inactive) | GI50 (UACC-257): 45 µM (inactive) | GI50 (UACC-62): 44.7 µM (inactive) | GI50 (UO-31): 36.1 µM (inactive)

COc1ccc([S+]([O-])Cc2cc(OC)ccc2OC)cc1 (stereo not given)
GI50 (786-0): > 100 µM (inactive) | GI50 (A498): > 100 µM (inactive) | GI50 (A549): > 100 µM (inactive) | GI50 (ACHN): > 100 µM (inactive) | GI50 (BT-549): > 100 µM (inactive) | GI50 (CAKI-1): > 100 µM (inactive) | GI50 (CCRF-CEM): > 100 µM (inactive) | GI50 (COLO 205): > 100 µM (inactive) | GI50 (DU-145): > 100 µM (inactive) | GI50 (EKVX): > 100 µM (inactive) | GI50 (HCC 2998): > 100 µM (inactive) | GI50 (HCT-116): > 100 µM (inactive) | GI50 (HCT-15): > 100 µM | GI50 (HOP-62): > 100 µM (inactive) | GI50 (HOP-92): > 100 µM (inactive) | GI50 (HT-29): > 100 µM (inactive) | GI50 (IGROV-1): > 100 µM (inactive) | GI50 (K562): > 100 µM (inactive) | GI50 (KM12): > 100 µM (inactive) | GI50 (LOX IMVI): > 100 µM (inactive) | GI50 (M14): > 100 µM (inactive) | GI50 (MCF7): > 100 µM (inactive) | GI50 (MDA-MB-231): > 100 µM (inactive) | GI50 (MDA-MB-435): > 100 µM (inactive) | GI50 (MDA-N): > 100 µM (inactive) | GI50 (MOLT-4): > 100 µM (inactive) | GI50 (Malme-3M): > 100 µM (inactive) | GI50 (NCI-H226): > 100 µM (inactive) | GI50 (NCI-H23): > 100 µM (inactive) | GI50 (NCI-H460): > 100 µM (inactive) | GI50 (NCI-H522): > 100 µM (inactive) | GI50 (NCI/ADR-RES): > 100 µM (inactive) | GI50 (OVCAR-3): > 100 µM (inactive) | GI50 (OVCAR-4): > 100 µM (inactive) | GI50 (OVCAR-5): > 100 µM (inactive) | GI50 (OVCAR-8): > 100 µM (inactive) | GI50 (PC-3): > 100 µM (inactive) | GI50 (RXF 393): > 100 µM (inactive) | GI50 (SF-268): > 100 µM (inactive) | GI50 (SF-295): > 100 µM (inactive) | GI50 (SF-539): > 100 µM (inactive) | GI50 (SK-MEL-28): > 100 µM (inactive) | GI50 (SK-OV-3): > 100 µM (inactive) | GI50 (SN12C): > 100 µM (inactive) | GI50 (SNB-19): > 100 µM (inactive) | GI50 (SNB-75): > 100 µM (inactive) | GI50 (SW-620): > 100 µM (inactive) | GI50 (T47D): > 100 µM (inactive) | GI50 (TK-10): > 100 µM (inactive) | GI50 (U-251): > 100 µM (inactive) | GI50 (UACC-257): > 100 µM (inactive) | GI50 (UACC-62): > 100 µM (inactive) | GI50 (UO-31): > 100 µM (inactive)
